Reference: patent US5886142A, “Radiolabeled thrombus imaging agents” (Thomas Jefferson University, priority 1997, dated 1999)
Positions of bridges follow the written chain, without caps; N, C: chain ends. Non-standard residues stand in square brackets, D forms with d. No end group written: not given here. *: point of attachment. GABA = NCCCC(=O)O; Acm = CC(=O)NC*

Experiments:
[1] = system: CD36 transfected Jurkat cells; conditions: radioiodinated (I-125); cited from earlier work
[2] = system: platelets; conditions: cited from earlier work
[3] = system: four tumor cell lines; conditions: cited from earlier work
[4] = system: MDA-231 cells; assay: Cell adhesion assay (method of Tuszynski et al.); format: cell-based; conditions: not radiolabeled; peptide dried in microtiter wells, one hour incubation
Procedure: Using the method of Tuszynski et al. J. Cell Biol. 1992, 116, 209-221, the hexapeptide Cys Ser Val Thr Cys Gly (SEQ ID NO: 4) and fibrinectin were used as controls, and the composition of SEQ ID NO: 7, as a test peptide. None of the peptides or fibrinectin were radiolabeled. Fifty μl of a […] saline solution of the peptide or protein was air dried overnight in wells of a microtiter plate. After drying, the wells were blocked with 50 μl of BSA for 30 minutes and washed with Hepes-bufferedsaline. The wells were incubated for one hour with a titer of 3.3×10^4 MDA-231 cells in 100 μl of Hepes-buffered saline containing 5 mM glucose, 1 mM MgCl2 and 1 mM CaCl2. The wells were washed once with PBS and adherent cells were fixed with 3% glutaraldehyde and stained with Giemsa overnight. The total number of adherent cells were counted under light microscopy.

[5] = system: activated platelets; assay: Binding of Tc-99m labeled peptide to activated platelets; design: species or system human; conditions: 6 i.u. thrombin, 22° C., 15 minutes
Procedure: The labeled cyclized peptide was then assayed for its ability to bind to resting and activated platelets. The platelets used in this assay were obtained from healthy human volunteers. Platelets (0.5 ml; 0.7×10^9 platelets), which were stored in a salt balanced medium for up to four days and 20 μl of the technetium labeled cyclized peptide (approximately 1.9×10^-3 mg) were dispensed into each of six test tubes. To activate the platelets, 6 i.u. of thrombin was added to three of the tubes and gently mixed until a visible clot was formed. The remaining three tubes (absent thrombin) served as controls, i.e., resting platelets. The tubes were held at 22° C. for 15 minutes and then centrifuged at 2000 g for 10 minutes. The supernatant was separated and the platelets washed with 0.9% NaCl and centrifuged again at 2000 g for 10 minutes. Radioactivity in the supernatant and washings combined, and that associated with the platelet samples, was counted and the percentage of radiolabeled platelets in each tube was determined. […]
A thrombus imaging agent, i.e., the composition of SEQ ID NO: 7 labeled with Tc-99m, was assayed for its ability to bind to resting and activated platelets. […] Radioactivity in the supernatant and washings combined, and that associated with the platelet samples, was counted and the percentage of radiolabeled platelets in each tube was determined.

[6] = system: resting platelets; assay: Binding of thrombus imaging agent to resting platelets; design: species or system human; conditions: absent thrombin, 22° C., 15 minutes
Procedure: A thrombus imaging agent, i.e., the composition of SEQ ID NO: 7 labeled with Tc-99m, was assayed for its ability to bind to resting and activated platelets. Again, the platelets used in this assay were obtained from healthy volunteers. Platelets (0.5 ml; 0.7×10^9 platelets), which were stored for up to four days and 20 μl of the thrombus imaging agent (~1.9×10^-3 μg) were dispensed into each of six test tubes. To activate the platelets, 6 i.u. of thrombin was added to three of the tubes and gently mixed until a visible clot was formed. The remaining three tubes (absent thrombin) served as controls (i.e., resting platelets). The tubes were held at 22° C. for 15 minutes and then centrifuged at 2000 g for 10 minutes. The supernatant was separated and the platelets washed with 0.9% NaCl and centrifuged again at 2000 g for 10 minutes. Radioactivity in the supernatant and washings combined, and that associated with the platelet samples, was counted and the percentage of radiolabeled platelets in each tube was determined.

[7] = system: forming clots; assay: Binding to forming human blood clots in vitro
Procedure: In several 1 ml syringes, approximately 0.7 ml of blood was drawn, without any anti-coagulant, from a healthy human volunteer. In four of the syringes, approximately 2 μCi of the thrombus imaging agent was added and mixed, and followed by the addition of 15 i.u. units of thrombin and mixed again. […] The fluid was expelled and reserved, and the clots were washed with 0.9% NaCl. The wash was combined with the reserved expelled fluid. The clots, still in the syringe, were placed over a gamma camera (GE 300 STARCAM) and imaged for a combined total count of 35,000. The forming clots were expelled from the syringes, collected in four separate test tubes, and placed in a gamma counter (Packard 5000 series) together with the previously reserved expelled liquid for each respective sample. The percentage of radioactivity associated with each clot was determined.
Images of these (broken) clots are shown in FIG. 4C, in which 51±1.2% of the added radiolabel was taken up. The increasing uptake of the thrombus imaging agent over a prolonged period of time in a forming clot in vitro is analogous to the situation in patients in whom clots continue to form slowly for a long period of time.

[8] = system: pre-formed clots; assay: Binding to pre-formed human blood clots in vitro; conditions: thrombin 15 minutes prior to addition of the agent
Procedure: In several 1 ml syringes, approximately 0.7 ml of blood was drawn, without any anti-coagulant, from a healthy human volunteer. In four of the syringes, approximately 2 μCi of the thrombus imaging agent was added and mixed, and followed by the addition of 15 i.u. units of thrombin and mixed again. Clots were allowed to form for 15 minutes at 22° C. The fluid was expelled and reserved, and the clots were washed with 0.9% NaCl. The wash was combined with the reserved expelled fluid. The clots, still in the syringe, were placed over a gamma camera (GE 300 STARCAM) and imaged for a combined total count of 35,000. The forming clots were expelled from the syringes, collected in four separate test tubes, and placed in a gamma counter (Packard 5000 series) together with the previously reserved expelled liquid for each respective sample. The percentage of radioactivity associated with each clot was determined.
In the four remaining test tubes, thrombin was added and allowed to incubate for 15 minutes, prior to the addition of the thrombus imaging agent. The pre-formed clots were treated as described above and measured for radioactivity

[9] = In vitro stability of the thrombus imaging agent by periodic HPLC; format: physicochemical; conditions: up to 18 hours after preparation
Procedure: The purity of the product was examined by HPLC (Rainin, Emeryville, Calif.) using a reverse phase C-18 column and gradient solvents of 0.1% TFA in water (solvent A) and 0.1% TFA in acetonitrile (solvent B). The gradient was such that at zero minutes, solvent A was 30%, reaching to […] 100% in 30 minutes. The flow rate was 1 ml/minute. The HPLC was equipped with a u.v. detector set at 278 nm, a 2" NaI (Tl) gamma counter and a rate meter. The radiolabeled composition (SEQ ID NO: 7), the thrombus imaging agent, was eluted at retention time 9.3 minutes, and the unbounded technetium at 3.7 minutes.
The in vitro stability of the thrombus imaging agent was examined for up to 18 hours after preparation.

[10] = design: species or system New Zealand white rabbit; conditions: rabbit, in vivo, iv
Procedure: Alternatively, the stability of the thrombus imaging agent was determined by comparing an HPLC elution plot of the radiolabeled composition (SEQ ID NO: 7) and of the radioactivity excreted in the urine of the rabbit given the thrombus imaging agent four hours previously. For the in vivo analysis, a preparation containing the radiolabeled composition (SEQ ID NO: 7) was injected intravenously into a New Zealand white rabbit. Urine was collected from the rabbit at four hours post-injection and a 20 μl portion of which was analyzed by HPLC as described above. The animal had not voided prior to collection of this sample.

[11] = system: thrombus in femoral artery; assay: Gamma camera imaging of experimental arterial thrombus in vivo; design: species or system New Zealand white albino rabbit; conditions: rabbit, intravenous, gamma camera image 15 minutes after administration (FIG. 6)
Source text: An experimental clot was induced in a femoral artery of a rabbit and imaged by scintigraphy.
A New Zealand white albino rabbit (3.5 kg) was anesthetized with a mixture of ketamine/zylaxine and placed in the supine position on an x-ray table. The animal was not heparinized. A small incision was made in the neck to expose the right carotid artery; a catheter inserted and with the assistance of a guidewire and a fluoroscope, the catheter was advanced in the left femoral artery. […] The puncture was confirmed when contrast agent was injected. A 3 mm×2 cm thrombogenic coil (Cooks Inc., Bloomington, Ind.) was placed in the catheter, and with the help of the guidewire was lodged in the left femoral artery above the hip joint, near the bladder (FIG. 5B).
Approximately 25 minutes after the insertion of the catheter and coil, 2.4 μCi (10 μg) of the thrombus imaging agent was injected intravenously into the animal and serial gamma camera images were obtained.

## YCSVTCG (cysteine pairing not given here) [SEQ ID NO: 3]
[1]
  binding to CD36 transfected Jurkat cells: binds strongly

## cyclic form: cyclic form of SEQ ID NO: 4 in which two cysteine residues are cyclized (CSVTCG; disulfide 1-5 (inferred))
[2]
  effect on ADP-induced platelet aggregation: inhibited ADP-induced platelet aggregation
[3]
  binding to four tumor cell lines relative to the native sequence: approximately to the same extent as the native sequence

## Gly (D)Ala Gly Gly Aba Tyr Cys(Acm) Ser Val Thr Cys(Acm) Gly (G[dA]GG[GABA]YC(Acm)SVTC(Acm)G) [SEQ ID NO: 7]
[4]
  lower cell adhesion as compared to fibronectin: approximately 17%
  proportion of cells demonstrating cell adhesion, test peptide versus hexapeptide (SEQ ID NO: 4): No statistical difference

## cysteine protected form: derivative of SEQ ID NO: 4 in which the two cysteine residues are blocked by acetaminomethyl (Acm) (C(Acm)SVTC(Acm)G)
[2]
  effect on ADP-induced platelet aggregation: inhibited ADP-induced platelet aggregation
[3]
  binding to four tumor cell lines relative to the native sequence: approximately to the same extent as the native sequence

## VCTGSC (cysteine pairing not given here) [SEQ ID NO: 6]
[2]
  effect on ADP-induced platelet aggregation: no biological activity

## thrombus imaging agent: the composition of SEQ ID NO: 7 labeled with Tc-99m (G[dA]GG[GABA]YC(Acm)SVTC(Acm)G; also: Tc-99m label)
[5]
  added radiolabel bound to activated platelets: 12.5±1.2%
[6]
  added radiolabel bound to resting platelets: 2.1±0.5%
[7]; FIGS. 4A and 4B, qualitative
  gamma camera images, radioactivity in forming versus preformed clots: more radioactivity in the forming clots than in the preformed clots
[7]; agent added before thrombin, 15 minutes at 22° C.
  radioactivity level measured in the forming clot: 27.6±0.2%
[7]; incubated for 2 hours at 22° C.
  added radiolabel taken up by forming clots: 51±1.2%
[8]
  radioactivity level measured in the preformed clots: 6.4±3.2%
[9]
  quantity of free Tc-99m versus time of preparation: had not increased
[10]
  quantity of free Tc-99m in urine versus the injected preparation: substantially the same
[11]
  uptake of radioactivity at the site of the punctured artery (clot): intense uptake of radioactivity

## labeled cyclized peptide: cyclized peptide Cys Ser Val Thr Cys Gly (SEQ ID NO: 4) directly labeled with Tc-99m at sulfhydryl moieties (CSVTCG; also: cyclized, kind not given here, directly labeled with Tc-99m at sulfhydryl moieties)
[5]
  added radiolabel bound to activated platelets: < 2%

## ANKHYF [SEQ ID NO: 5]
[2]
  effect on ADP-induced platelet aggregation: no biological activity
